Read-outs that look alike come from different tables or passages of the source.
Assays:
HIV protease = target: T1, HIV protease (Human immunodeficiency virus type 1 group M subtype B, UniProt P04585); experiment: HIV protease enzyme assay (fluorogenic substrate 2-aminobenzoyl-Ile-Nle-Phe(p-NO2)-Gln-ArgNH2); type: biochemical
T1 construct: HIV protease is diluted in the assay buffer to a final enzyme concentration of 12.3 nanomolar, based on a molecular weight of 10,780
Source text: The compounds of the present invention are effective HIV protease inhibitors. Utilizing an enzyme assay as described below, the compounds set forth in the examples herein disclosed inhibited the HIV enzyme. The preferred compounds of the present invention and their calculated IC50 (inhibiting concentration 50%, i.e., the concentration at which the inhibitor compound reduces enzyme activity by 50%) values are sh6wn in Table 16. The enzyme method is described below. The substrate is 2-aminobenzoyl-Ile-Nle-Phe(p-NO2)-Gln-ArgNH2. The positive control is MVT-101 (Miller, M. et al, Science, 246, 1149 (1989)] The assay conditions are as follows:
The above described substrate is dissolved in DMSO, then diluted 10 fold in assay buffer. Final substrate concentration in the assay is 80 μM.
HIV protease is diluted in the assay buffer to a final enzyme concentration of 12.3 nanomolar, based on a molecular weight of 10,780.
The final concentration of DMSO is 14% and the final concentration of glycerol is 18%. The test compound is dissolved in DMSO and diluted in DMSO to 10×the test concentration; 10 μl of the enzyme preparation is added, the materials mixed and then the mixture is incubated at ambient temperature for 15 minutes. The enzyme reaction is initiated by the addition of 40 μl of substrate. The increase in fluorescence is monitored at 4 time points (0, 8, 16 and 24 minutes) at ambient temperature. Each assay is carried out in duplicate wells.

HIV-1 = experiment: CEM cell assay: HIV inhibition in acutely infected cells (MTT); type: cell-based; settings: Human immunodeficiency virus 1, CCRF-CEM, 168 h
Method: The effectiveness of compounds of the present invention were determined in a CEM cell assay.
(§1) The HIV inhibition assay method of acutely infected cells is an automated tetrazolium based calorimetric assay essentially that reported by Pauwles et al, J. Virol. Methods, 20, 309-321 (1988). Assays were performed in 96-well tissue culture plates. CEM cells, a CD4+ cell line, were grown in RPMI-1640 medium (Gibco) supplemented with a 10% fetal calf serum and were then treated with polybrene (2 μg/ml). An 80 μl volume of medium containing 1×10^4 cells was dispensed into each well of the tissue culture plate. To each well was added a 100 μl volume of tesc compound dissolved in tissue culture medium (or medium without test compound as a control) to achieve the desired final concentration and the cells were incubated at 37° C. for 1 hour. A frozen culture of HIV-1 was diluted in culture medium to a concentration of 5×10^4 TCID50 per ml (TCID50=the dose of virus that infects 50% of cells in tissue culture), and a 20 μL volume of the virus sample (containing 1000 TCID50 of virus) was added to wells containing test compound and to wells containing only medium (infected control cells). Several wells received culture medium without virus (uninfected control cells). Likewise, the intrinsic toxicity of the test compound was determined by adding medium without virus to several wells containing test compound. In summary, the tissue culture plates contained the following experiments:
(§2) In experiments 2 and 4 the final concentrations of test compounds were 1, 10, 100 and 500 μg/ml. Either azidothymidine (AZT) or dideoxyinosine (ddI) was included as a positive drug control. […] DMSO was added to all control wells at an appropriate concentration.
(§3) Following the addition of virus, cells were incubated at 37° C. in a humidified, 5% CO2 atmosphere for 7 days. Test compounds could be added on days 0, 2 and 5 if desired. On day 7, post-infection, the cells in each well were resuspended and a 100 μl sample of each cell suspension was removed for assay. A 20 μL volume of a 5 mg/ml solution of 3-(4,5-dimethylthiazol-2-yl)-2,5-diphenyltetrazolium bromide (MTT) was added to each 100 μL cell suspension, and the cells were incubated for 4 hours at […] in a 5% CO2 environment. […] To each sample was added 100 μl of 10% sodium dodecylsulfate in 0.01 N HCl to lyse the cells, and samples were incubated overnight. The absorbance at 590 nm was determined for each sample using a Molecular Devices microplate reader. Absorbance values for each set of wells is compared to assess viral control infection, uninfected control cell response as well as test compound by cytotoxicity and antiviral efficacy.

CEM cells = experiment: CEM cell assay: intrinsic toxicity of test compound in uninfected cells (MTT); type: cell-based; settings: Table 10, CEM cells without virus, 7 days
Method: as §1, §2, §3

[1] = Table 10, CEM cells infected with HIV-1, 7 days, MTT, read-out: EC50

Row | Structure (SMILES) | IC50 (HIV protease) [nM] | EC50 (HIV-1; [1]) [nM] | TD50 (nM) (CEM cells) | EC50 (HIV-1) [nM]
1 | COc1ccc(S(=O)(=O)N(CCC(C)C)C[C@@H](O)[C@H](Cc2ccccc2)NC(=O)[C@H](C)CS(C)(=O)=O)cc1 (relative stereo) [Example 2, Propanamide, N-[2-Hydroxy-3-[(3-methylbutyl)(4-methoxyphenylsulfonyl)aminol-1-(phenylmethyl)propyl]-2-methyl-3-(methylsulfonyl)-[1S-[1R*(R*),2S*]]-] | 3.2 | 12 | 90,000 nM | –
2 | CC(C)CN(C[C@@H](O)[C@H](Cc1ccccc1)NC(=O)[C@H](C)CS(C)(=O)=O)S(=O)(=O)c1ccccc1 (relative stereo) [Example 3, Propanamide, N-[2-Hydroxy-3-[(2-methylpropyl)(phenylsulfonyl)amino]-1-(phenylmethyl)propyl]-2-methyl-3-(methylsulfonyl)-, [1S-[1R*(R*),2S*]]-] | 3.2 | 10 | 213,000 nM | –
3 | CC(C)CCN(C[C@@H](O)[C@H](Cc1ccccc1)NC(=O)[C@H](C)CS(C)(=O)=O)S(=O)(=O)c1ccccc1 (relative stereo) [Example 4, Propanamide, N-[2-Hydroxy-3-[(3-methylbutyl)(phenylsulfonyl)amino]-1-(phenylmethyl)propyl]-2-methyl-3-(methylsulfonyl)-. [1S-[1R*(R*), 2S*]]-] | 3 | 12 | >1,000,000 nM | –
4 | CCCN(C[C@@H](O)[C@H](Cc1ccccc1)NC(=O)[C@H](C)CS(C)(=O)=O)S(=O)(=O)c1ccccc1 (relative stereo) [Example 5, Propanamide, N-[2-Hydroxy-3-(propyl)(phenylsulfonyl)amino]-1-(phenylmethyl)propyl]-2-methyl-3-(methylsulfonyl)-, [1S-[1R* (R*), 2S*]]-] | 13 | 25 | 438,000 nM | –
5 | CCCCN(C[C@@H](O)[C@H](Cc1ccccc1)NC(=O)[C@H](C)CS(C)(=O)=O)S(=O)(=O)c1ccccc1 (relative stereo) [Example 6, Propanamide, N-[2-Hydroxy-3-(butyl)(phenylsulfonyl)amino]-1-(phenylmethyl)propyl]-2-methyl-3-(methylsulfonyl)-. [1S-[1R*(R*),2S*]]-] | 8.8 | 29 | 133,000 nM | –
6 | COc1ccc(S(=O)(=O)N(CC(C)C)C[C@@H](O)[C@H](Cc2ccccc2)NC(=O)[C@H](C)CS(C)(=O)=O)cc1 (relative stereo) [Example 7, propanamide, N-[2-Hydroxy-3-[(2-methylpropyl)(4-methoxyphenylsulfonyl)amino]-1-(phenylmethyl)propyl]-2-methyl-3-(methylsulfonyl)-,[1S-[1R*(R*),2S*]]-] | 1.9 | 2 | >1,000,000 nM | –
7 | CCCCN(C[C@@H](O)[C@H](Cc1ccccc1)NC(=O)[C@H](C)CS(C)(=O)=O)S(=O)(=O)c1ccc(OC)cc1 (relative stereo) [Example 8, Propanamide, N-[2-Hydroxy-3-[(butyl)(4-methoxyphenylsulfonyl)amino]-1-(phenylmethyl)propyl]-2-methyl-3-(methylsulfonyl)-,[1S-[1R*(R*),2S*]]-] | 3.1 | 9 | >1,000,000 nM | –
8 | CCCN(C[C@@H](O)[C@H](Cc1ccccc1)NC(=O)[C@H](C)CS(C)(=O)=O)S(=O)(=O)c1ccc(OC)cc1 (relative stereo) [Example 9, propanamide, N-[2-Hydroxy-3-[(propyl)(4-methoxyphenylsulfonyl)amino]-1-(phenylmethyl)propyl]-2-methyl-3-(methylsulfonyl)-,[1S-[1R*(R*),2S*]]-] | 4.1 | 16 | >1,000,000 nM | –
9 | CC(=O)Nc1ccc(S(=O)(=O)N(CC(C)C)C[C@@H](O)[C@H](Cc2ccccc2)NC(=O)[C@H](C)CS(C)(=O)=O)cc1 (relative stereo) [Example 10, Propanamide, N-[2-Hydroxy-3-[(2-methylpropyl)(4-acetamido)phenylsulfonyl)amino]-1-(phenylmethyl)propyl]-2-methyl-3-(methylsulfonyl)-,[1S-[1R*(R*),2S*]]-] | – | – | 860,000 nM | 223
10 | CC(C)CCN(C[C@@H](O)[C@H](Cc1ccccc1)NC(=O)[C@H](C)CS(C)(=O)=O)S(=O)(=O)c1ccc(N)cc1 (relative stereo) [Example 11, Propanamide, N-[2-Hydroxy-3-[(3-methylbutyl)(4-aminophenylsulfonyl)amino]-1-(phenylmethyl)propyl]-2-methyl-3-(methylsulfonyl)-,[1S-[1R*(R*),2S*]]-] | 7.8 | 45 | 170,000 nM | –
11 | COc1ccc(S(=O)(=O)N(CC(C)C)C[C@@H](O)[C@H](Cc2ccccc2)NC(=O)[C@H](C)CS(C)(=O)=O)cc1OC (relative stereo) [Example 12, Propanamide, N-[2-Hydroxy-3-[(2-methylpropyl)(3.4-dimethoxyphenylsulfonyl)amino]-1-(phenylmethyl)propyl]-2-methyl-3-(methylsulfonyl)-,[1S-[1R*(R*),2S*]]-] | 38 | 87 | 77,000 nM | –
